Test results reported in patent US9717699B2, “Sterilized compositions of cyanoacrylate monomers and naphthoquinone 2,3-oxides” (Adhezion Biomedical, LLC, priority 2014, dated 2017).

Assay: Miscibility/solubility of additive in cyanoacrylate monomer
Format: physicochemical
Conditions: activated 2-octyl cyanoacrylate composition, room temperature

Miscibility with 2-octyl cyanoacrylate | Miscibility with 2-octyl cyanoacrylate (listed as Phylloquinone oxide) | SMILES
well-miscible | well miscible | C/C(=C\CC12OC1(C)C(=O)c1ccccc1C2=O)CCCC(C)CCCC(C)CCCC(C)C (centres unmarked) [Vitamin K1 oxide, 2-methyl-3-phytyl-1,4-naphthoquinone 2,3-oxide]
well dissolved | – | CC1=C(C/C=C(\C)CCC[C@H](C)CCC[C@H](C)CCCC(C)C)C(=O)c2ccccc2C1=O [2-methyl-3-phytyl-1,4-naphthoquinone]
well-miscible | – | CC1=CC(=O)c2ccccc2C1=O [2-methyl-1,4-naphthoquinone]

SMILES | Miscibility with 2-octyl cyanoacrylate | Miscibility with 2-octyl cyanoacrylate (listed as Phylloquinone oxide)
CC(=O)Oc1cc(C)c(OC(C)=O)c2ccccc12 [1,4-diacetoxy-2-methylnaphthalene] | well soluble | –
